Tested on: 439559-082-T-J2-PDC spheroids viability
Test: Anticancer human tumor 439559-082-T-J2-PDC patient-derived colon adenocarcinoma cell line growth inhibition [GQUAD]
Conditions: for IC50: curve of first compound; for viability, T/C: stronger effect = lower value; active = viability on the fitted dose curve at most 10% of control; inactive = the rest
Procedure, shortened: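 Viability of tumor cells grown as complex spheroids with endothelial and stromal cells, exposed to drug combinations. Top concentration at or near clinical Cmax (else 10 microM), diluted in half-log increments.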

[1] = second compound 0.0316 µM, first compound 0.0316 µM
[2] = second compound 0.0316 µM, first compound 0.1 µM
[3] = second compound 0.0316 µM, first compound 0.316 µM
[4] = second compound 0.0316 µM, first compound 1 µM
[5] = second compound 0.0316 µM, first compound 3.16 µM
[6] = second compound 0.0316 µM, first compound 10 µM
[7] = second compound 0.1 µM, first compound 0.0316 µM
[8] = second compound 0.1 µM, first compound 0.1 µM
[9] = second compound 0.1 µM, first compound 0.316 µM
[10] = second compound 0.1 µM, first compound 1 µM
[11] = second compound 0.1 µM, first compound 3.16 µM
[12] = second compound 0.1 µM, first compound 10 µM
[13] = second compound 0.316 µM, first compound 0.0316 µM
[14] = second compound 0.316 µM, first compound 0.1 µM
[15] = second compound 0.316 µM, first compound 0.316 µM
[16] = second compound 0.316 µM, first compound 1 µM
[17] = second compound 0.316 µM, first compound 3.16 µM
[18] = second compound 0.316 µM, first compound 10 µM
[19] = second compound 1 µM, first compound 0.0316 µM
[20] = second compound 1 µM, first compound 0.1 µM
[21] = second compound 1 µM, first compound 0.316 µM
[22] = second compound 1 µM, first compound 1 µM
[23] = second compound 1 µM, first compound 3.16 µM
[24] = second compound 1 µM, first compound 10 µM
[25] = second compound 3.16 µM, first compound 0.0316 µM
[26] = second compound 3.16 µM, first compound 0.1 µM
[27] = second compound 3.16 µM, first compound 0.316 µM
[28] = second compound 3.16 µM, first compound 1 µM
[29] = second compound 3.16 µM, first compound 3.16 µM
[30] = second compound 3.16 µM, first compound 10 µM
[31] = second compound 10 µM, first compound 0.0316 µM
[32] = second compound 10 µM, first compound 0.1 µM
[33] = second compound 10 µM, first compound 0.316 µM
[34] = second compound 10 µM, first compound 1 µM
[35] = second compound 10 µM, first compound 3.16 µM
[36] = second compound 10 µM, first compound 10 µM
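Note: spheroids exposed to the agents for 7 days before readout.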
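Throughout, for viability, T/C: percent of luminescence signal in DMSO vehicle wells taken as 100% viability.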

CCCS(=O)(=O)Nc1ccc(F)c(C(=O)c2c[nH]c3ncc(-c4ccc(Cl)cc4)cc23)c1F + Cc1[nH]c2ccc(F)cc2c1-c1nc2c3cccnc3c3ncccc3c2[nH]1
3130 nM: IC50 (second compound 1 µM)
2640 nM: IC50 (second compound 0.1 µM)
2610 nM: IC50 (second compound 10 µM)
2750 nM: IC50 (second compound 0.0316 µM)
3100 nM: IC50 (second compound 0.316 µM)
inactive: viability, T/C [1] 108% | viability, T/C [2] 96.2% | viability, T/C [3] 103% | viability, T/C [4] 78.5% | viability, T/C [5] 46.5% | viability, T/C [6] 21.1% | viability, T/C [7] 104% | viability, T/C [8] 94.5% | viability, T/C [9] 95% | viability, T/C [10] 83.8% | viability, T/C [11] 43.5% | viability, T/C [12] 22.7% | viability, T/C [13] 105% | viability, T/C [14] 100% | viability, T/C [15] 89.8% | viability, T/C [16] 80.2% | viability, T/C [17] 47.6% | viability, T/C [18] 23% | viability, T/C [19] 108% | viability, T/C [20] 97.3% | viability, T/C [21] 90.4% | viability, T/C [22] 75.1% | viability, T/C [23] 48.6% | viability, T/C [24] 20.8% | viability, T/C [25] 78.7% | viability, T/C [26] 86% | viability, T/C [27] 79.5% | viability, T/C [28] 65.2% | viability, T/C [29] 40.5% | viability, T/C [30] 16.2% | viability, T/C [31] 81.2% | viability, T/C [32] 67.6% | viability, T/C [33] 71.5% | viability, T/C [34] 67.6% | viability, T/C [35] 46.1% | viability, T/C [36] 13.5%
2040 nM: IC50 (second compound 3.16 µM)

Nc1ccn(C2OC(CO)C(O)C2(F)F)c(=O)n1 (centres undefined) + CN(C)c1ccc(Nc2c3ccc(NC(=O)CCN4CCCC4)cc3nc3cc(NC(=O)CCN4CCCC4)ccc23)cc1
261 nM: IC50 (second compound 0.0316 µM)
inactive: viability, T/C [1] 78.2% | viability, T/C [2] 65.2% | viability, T/C [3] 46.7% | viability, T/C [4] 32.3% | viability, T/C [5] 25.2% | viability, T/C [6] 20.5% | viability, T/C [7] 85.3% | viability, T/C [8] 70.4% | viability, T/C [9] 42.6% | viability, T/C [10] 36.3% | viability, T/C [11] 26.2% | viability, T/C [12] 23% | viability, T/C [13] 84.8% | viability, T/C [14] 68.6% | viability, T/C [15] 42.5% | viability, T/C [16] 29.2% | viability, T/C [17] 26.8% | viability, T/C [18] 20.8% | viability, T/C [19] 87% | viability, T/C [20] 65.7% | viability, T/C [21] 45.8% | viability, T/C [22] 28.2% | viability, T/C [23] 23.1% | viability, T/C [24] 19.5% | viability, T/C [25] 86.5% | viability, T/C [26] 67.9% | viability, T/C [27] 38.7% | viability, T/C [28] 28.9% | viability, T/C [29] 24.4% | viability, T/C [30] 19.7% | viability, T/C [31] 76.9% | viability, T/C [32] 59.9% | viability, T/C [33] 39.3% | viability, T/C [34] 18.5% | viability, T/C [35] 23.2% | viability, T/C [36] 18.7%
263 nM: IC50 (second compound 0.1 µM)
237 nM: IC50 (second compound 1 µM)
170 nM: IC50 (second compound 10 µM)
209 nM: IC50 (second compound 3.16 µM)
232 nM: IC50 (second compound 0.316 µM)

From PubChem BioAssay AID2060510 (Molecular Pharmacology Branch, DTP, NCI, 2025)
